Results on 6 molecules are retold here after paper PMC4230938, “A High-Yield Co-Expression System for the Purification of an Intact Drs2p-Cdc50p Lipid Flippase Complex, Critically Dependent on and Stabilized by Phosphatidylinositol-4-Phosphate” (PLoS ONE, 2014).

For data set [1], the target named is T1, Drs2p-Cdc50p complex (Saccharomyces cerevisiae, UniProt P39524).
T1 construct: gene DRS2; full-length, co-expressed in yeast W303.1b/GAL4; N-terminal Bad tag (Drs2p) and His10 tag (Cdc50p) cut by TEV, Gly plus four-Gly linker left; 154,050 Da Drs2p, 45,136 Da unglycosylated Cdc50p; glycosylated; 1:1 complex in DDM; with Cell division control protein 50
T1 sequence (P39524 1-1355): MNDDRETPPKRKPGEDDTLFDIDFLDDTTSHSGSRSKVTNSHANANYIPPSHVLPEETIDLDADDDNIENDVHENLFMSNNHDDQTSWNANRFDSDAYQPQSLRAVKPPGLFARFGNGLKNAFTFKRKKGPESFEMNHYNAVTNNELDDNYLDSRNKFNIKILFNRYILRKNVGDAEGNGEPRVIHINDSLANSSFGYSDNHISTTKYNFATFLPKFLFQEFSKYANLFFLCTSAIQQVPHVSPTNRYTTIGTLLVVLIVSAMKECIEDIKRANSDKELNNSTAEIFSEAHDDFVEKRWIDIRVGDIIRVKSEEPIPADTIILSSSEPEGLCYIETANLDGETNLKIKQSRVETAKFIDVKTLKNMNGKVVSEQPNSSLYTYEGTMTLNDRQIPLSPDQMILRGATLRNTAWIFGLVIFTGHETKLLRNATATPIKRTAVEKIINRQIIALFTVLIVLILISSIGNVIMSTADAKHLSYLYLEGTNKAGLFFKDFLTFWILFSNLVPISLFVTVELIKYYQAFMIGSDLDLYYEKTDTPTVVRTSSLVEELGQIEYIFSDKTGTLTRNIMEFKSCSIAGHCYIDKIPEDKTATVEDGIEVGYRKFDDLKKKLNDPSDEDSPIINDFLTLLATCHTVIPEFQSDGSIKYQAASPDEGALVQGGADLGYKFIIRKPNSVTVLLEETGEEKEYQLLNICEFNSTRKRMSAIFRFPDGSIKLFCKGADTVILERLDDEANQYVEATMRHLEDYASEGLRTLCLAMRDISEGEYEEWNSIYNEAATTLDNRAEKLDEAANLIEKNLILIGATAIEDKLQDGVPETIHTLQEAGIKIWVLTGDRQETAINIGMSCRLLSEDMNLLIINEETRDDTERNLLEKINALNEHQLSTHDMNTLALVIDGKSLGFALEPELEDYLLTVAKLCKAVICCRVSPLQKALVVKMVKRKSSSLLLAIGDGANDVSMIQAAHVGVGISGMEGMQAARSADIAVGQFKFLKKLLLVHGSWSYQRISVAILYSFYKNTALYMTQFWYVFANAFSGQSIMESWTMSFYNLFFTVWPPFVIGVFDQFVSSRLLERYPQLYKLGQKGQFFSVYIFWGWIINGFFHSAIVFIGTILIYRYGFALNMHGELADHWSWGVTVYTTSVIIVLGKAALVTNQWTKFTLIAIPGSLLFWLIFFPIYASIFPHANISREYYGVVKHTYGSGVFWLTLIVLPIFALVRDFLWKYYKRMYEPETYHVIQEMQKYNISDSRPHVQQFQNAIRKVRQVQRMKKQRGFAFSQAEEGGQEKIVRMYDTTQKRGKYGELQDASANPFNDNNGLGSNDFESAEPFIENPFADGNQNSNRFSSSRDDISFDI
T1 sequence (P25656 1-391 partner): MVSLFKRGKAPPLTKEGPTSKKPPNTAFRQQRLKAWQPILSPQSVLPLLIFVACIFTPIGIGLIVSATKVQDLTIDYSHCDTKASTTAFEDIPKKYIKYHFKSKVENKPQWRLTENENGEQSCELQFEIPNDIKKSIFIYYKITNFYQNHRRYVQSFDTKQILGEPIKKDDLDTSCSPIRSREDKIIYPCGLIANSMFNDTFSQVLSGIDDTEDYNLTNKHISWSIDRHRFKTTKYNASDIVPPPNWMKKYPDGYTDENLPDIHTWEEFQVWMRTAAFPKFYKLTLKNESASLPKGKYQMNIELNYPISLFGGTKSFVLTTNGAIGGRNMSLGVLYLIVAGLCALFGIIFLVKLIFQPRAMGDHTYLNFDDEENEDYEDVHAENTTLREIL
Nature of the data set: ATPase activity, colorimetric Pi release. In kind it is biochemical. The conditions noted are these: inhibitor; 1 h pre-incubation on ice; 1 mM ATP, 0.025 mg/mL PI4P, 0.05 mg/mL POPS, 1 mg/mL DDM, pH 7, 30 °C; printed only as a range.

Data set [2] concerns the target T1, Drs2p-Cdc50p complex. Nature of the data set: ATPase activity of complex purified without PS. Type of data set: biochemical. The conditions noted are these: lipid stimulation at 0.05 mg/mL; 0.025 mg/mL PI4P, 1 mM Mg-ATP, 1 mg/mL DDM, pH 7, 30 °C.
Data set [3] deals with T1, Drs2p-Cdc50p complex. Nature of the data set: ATPase activity, colorimetric Pi release. Type of data set: biochemical. The conditions noted are these: transported lipid stimulating ATPase; 0.025 mg/mL PI4P, 1 mM Mg-ATP, 1 mg/mL DDM, pH 7, 30 °C; residual PS from purification present; read-out: [PS]1/2.
For data set [4], the target named is T2, Drs2p, tag-free after TEV cleavage (S. cerevisiae, UniProt P39524 1-1355).
T2 construct: Drs2p, yeast P4-ATPase; theoretical mass of the recombinant protein 154,050 Da; also called purified Drs2p; source: S. cerevisiae W303.1b/GAL4, co-expressed with Cdc50p, purified (streptavidin-Sepharose, TEV elution, Ni2+-TED; SEC); not shown: Bad (Biotin Acceptor Domain), N-terminal, cleaved
T2 sequence (looked up): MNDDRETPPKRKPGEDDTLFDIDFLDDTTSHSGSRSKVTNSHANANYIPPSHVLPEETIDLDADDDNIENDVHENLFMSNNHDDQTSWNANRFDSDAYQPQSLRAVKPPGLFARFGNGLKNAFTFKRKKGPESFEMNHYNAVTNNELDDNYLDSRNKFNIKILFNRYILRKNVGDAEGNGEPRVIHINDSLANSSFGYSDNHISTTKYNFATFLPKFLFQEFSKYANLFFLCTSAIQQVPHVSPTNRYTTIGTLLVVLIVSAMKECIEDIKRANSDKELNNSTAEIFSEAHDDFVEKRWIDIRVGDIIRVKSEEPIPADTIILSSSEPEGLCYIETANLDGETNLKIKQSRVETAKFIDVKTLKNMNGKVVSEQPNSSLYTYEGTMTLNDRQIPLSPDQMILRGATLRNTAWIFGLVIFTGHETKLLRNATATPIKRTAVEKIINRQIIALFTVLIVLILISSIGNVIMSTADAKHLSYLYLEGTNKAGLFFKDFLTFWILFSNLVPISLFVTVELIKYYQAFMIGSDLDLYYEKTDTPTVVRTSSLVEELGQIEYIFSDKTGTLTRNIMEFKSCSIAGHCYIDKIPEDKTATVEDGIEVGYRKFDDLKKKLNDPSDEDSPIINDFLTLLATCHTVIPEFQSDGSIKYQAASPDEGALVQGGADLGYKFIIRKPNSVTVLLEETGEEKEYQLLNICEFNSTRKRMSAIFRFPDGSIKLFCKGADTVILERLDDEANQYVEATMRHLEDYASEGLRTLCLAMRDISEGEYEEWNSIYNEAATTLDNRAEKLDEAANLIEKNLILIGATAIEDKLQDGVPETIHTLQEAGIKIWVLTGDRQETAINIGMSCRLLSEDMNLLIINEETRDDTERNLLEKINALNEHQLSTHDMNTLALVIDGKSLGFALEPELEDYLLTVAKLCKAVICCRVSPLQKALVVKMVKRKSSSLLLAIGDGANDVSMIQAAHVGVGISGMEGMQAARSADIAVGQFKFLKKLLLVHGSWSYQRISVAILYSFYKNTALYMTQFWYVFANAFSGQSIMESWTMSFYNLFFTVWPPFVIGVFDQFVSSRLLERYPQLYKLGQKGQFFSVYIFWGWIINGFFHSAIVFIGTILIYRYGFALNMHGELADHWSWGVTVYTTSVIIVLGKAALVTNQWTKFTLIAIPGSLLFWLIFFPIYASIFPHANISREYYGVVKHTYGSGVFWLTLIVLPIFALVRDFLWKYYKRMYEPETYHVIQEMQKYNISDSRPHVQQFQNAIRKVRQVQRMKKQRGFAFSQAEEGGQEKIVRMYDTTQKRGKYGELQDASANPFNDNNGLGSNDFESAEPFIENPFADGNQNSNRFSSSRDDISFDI
Nature of the data set: in-gel fluorescence of haloalkane-modified Trp residues after SDS-PAGE; band intensities of Drs2p and Cdc50p in the streptavidin-purified complex, 4-20% gradient gel. The note with it: both partners purified.

Substrate in data set [5]: Nc1ncnc2c1ncn2[C@@H]1O[C@H](COP(=O)(O)OP(=O)(O)OP(=O)(O)O)[C@@H](O)[C@H]1O
The data set can be described thus: ATPase activity, colorimetric Pi release. Type of data set: biochemical, Saccharomyces cerevisiae. The note with it: 0.025 mg/mL PI4P, 0.05 mg/mL POPS, 1 mg/mL DDM, ATP-regenerating system, pH 7, 30 °C.

A value given as a limit tells only on which side of the number the result lay.

For the molecule `[O]=[V]([OH])([OH])[OH]` [orthovanadate], on Drs2p-Cdc50p complex [1], the KI result was “vanadate had a rather poor KI, in the millimolar range (Figure 7E)”.

Take `CCCCCCCC/C=C\CCCCCCCC(=O)O[C@H](COC(=O)CCCCCCCCCCCCCCC)COP(=O)(O)OCCN` [POPE, 1-palmitoyl-2-oleoyl-sn-glycero-3-phosphoethanolamine]: on Drs2p-Cdc50p complex [2], the “ATPase activity of complex purified without PS” value is on record as “POPC only had a slightly stimulating effect, POPE had a larger one”.

Regarding `CCCCCCCCCCCCCC(=O)OC[C@H](COP(=O)(O)OC[C@H](N)C(=O)O)OC(=O)CCCCCCCCCCCCC` [DMPS, 1,2-dimyristoyl-sn-glycero-3-phospho-L-serine], on Drs2p-Cdc50p complex [2], the “ATPase activity of complex purified without PS” value is recorded as “PS had the largest stimulating effect, irrespective of its fatty acyl chain (POPS or DMPS)”. With `CCCCCCCC/C=C\CCCCCCCC(=O)O[C@H](COC(=O)CCCCCCCCCCCCCCC)COP(=O)(O)OC[C@H](N)C(=O)O` [POPS, 1-palmitoyl-2-oleoyl-sn-glycero-3-phospho-L-serine], the Km on Drs2p-Cdc50p complex [3] is > 26.2 µM.

B1: Cdc50p, tag-free after TEV cleavage (natural protein, S. cerevisiae, UniProt P25656 1-391, looked up)
chain: MVSLFKRGKAPPLTKEGPTSKKPPNTAFRQQRLKAWQPILSPQSVLPLLIFVACIFTPIGIGLIVSATKVQDLTIDYSHCDTKASTTAFEDIPKKYIKYHFKSKVENKPQWRLTENENGEQSCELQFEIPNDIKKSIFIYYKITNFYQNHRRYVQSFDTKQILGEPIKKDDLDTSCSPIRSREDKIIYPCGLIANSMFNDTFSQVLSGIDDTEDYNLTNKHISWSIDRHRFKTTKYNASDIVPPPNWMKKYPDGYTDENLPDIHTWEEFQVWMRTAAFPKFYKLTLKNESASLPKGKYQMNIELNYPISLFGGTKSFVLTTNGAIGGRNMSLGVLYLIVAGLCALFGIIFLVKLIFQPRAMGDHTYLNFDDEENEDYEDVHAENTTLREIL
modifications: glycosylated
notes: Cdc50p, accessory subunit of Drs2p; recombinant non-glycosylated mass 45,136 Da including the linker glycines; also called glycosylated Cdc50p; source: S. cerevisiae W303.1b/GAL4, co-expressed with Drs2p, purified with it (streptavidin-Sepharose, TEV elution, Ni2+-TED; SEC); not shown: His10, N-terminal, cleaved
Turning to B1, the “stoichiometry N” value in data set [4] is 1 Drs2p:Cdc50p (mol:mol).

B2: Drs2p-Cdc50p complex (Saccharomyces cerevisiae S288C) (protein)
chain: MNDDRETPPKRKPGEDDTLFDIDFLDDTTSHSGSRSKVTNSHANANYIPPSHVLPEETIDLDADDDNIENDVHENLFMSNNHDDQTSWNANRFDSDAYQPQSLRAVKPPGLFARFGNGLKNAFTFKRKKGPESFEMNHYNAVTNNELDDNYLDSRNKFNIKILFNRYILRKNVGDAEGNGEPRVIHINDSLANSSFGYSDNHISTTKYNFATFLPKFLFQEFSKYANLFFLCTSAIQQVPHVSPTNRYTTIGTLLVVLIVSAMKECIEDIKRANSDKELNNSTAEIFSEAHDDFVEKRWIDIRVGDIIRVKSEEPIPADTIILSSSEPEGLCYIETANLDGETNLKIKQSRVETAKFIDVKTLKNMNGKVVSEQPNSSLYTYEGTMTLNDRQIPLSPDQMILRGATLRNTAWIFGLVIFTGHETKLLRNATATPIKRTAVEKIINRQIIALFTVLIVLILISSIGNVIMSTADAKHLSYLYLEGTNKAGLFFKDFLTFWILFSNLVPISLFVTVELIKYYQAFMIGSDLDLYYEKTDTPTVVRTSSLVEELGQIEYIFSDKTGTLTRNIMEFKSCSIAGHCYIDKIPEDKTATVEDGIEVGYRKFDDLKKKLNDPSDEDSPIINDFLTLLATCHTVIPEFQSDGSIKYQAASPDEGALVQGGADLGYKFIIRKPNSVTVLLEETGEEKEYQLLNICEFNSTRKRMSAIFRFPDGSIKLFCKGADTVILERLDDEANQYVEATMRHLEDYASEGLRTLCLAMRDISEGEYEEWNSIYNEAATTLDNRAEKLDEAANLIEKNLILIGATAIEDKLQDGVPETIHTLQEAGIKIWVLTGDRQETAINIGMSCRLLSEDMNLLIINEETRDDTERNLLEKINALNEHQLSTHDMNTLALVIDGKSLGFALEPELEDYLLTVAKLCKAVICCRVSPLQKALVVKMVKRKSSSLLLAIGDGANDVSMIQAAHVGVGISGMEGMQAARSADIAVGQFKFLKKLLLVHGSWSYQRISVAILYSFYKNTALYMTQFWYVFANAFSGQSIMESWTMSFYNLFFTVWPPFVIGVFDQFVSSRLLERYPQLYKLGQKGQFFSVYIFWGWIINGFFHSAIVFIGTILIYRYGFALNMHGELADHWSWGVTVYTTSVIIVLGKAALVTNQWTKFTLIAIPGSLLFWLIFFPIYASIFPHANISREYYGVVKHTYGSGVFWLTLIVLPIFALVRDFLWKYYKRMYEPETYHVIQEMQKYNISDSRPHVQQFQNAIRKVRQVQRMKKQRGFAFSQAEEGGQEKIVRMYDTTQKRGKYGELQDASANPFNDNNGLGSNDFESAEPFIENPFADGNQNSNRFSSSRDDISFDI
notes: full-length, co-expressed in yeast W303.1b/GAL4; N-terminal Bad tag (Drs2p) and His10 tag (Cdc50p) cut by TEV, Gly plus four-Gly linker left; 154,050 Da Drs2p, 45,136 Da unglycosylated Cdc50p; glycosylated; 1:1 complex in DDM; with Cell division control protein 50
Turning to B2, the K0.5 in data set [5] is given as 10 µM.
